{"source": "patent US20140093903A1", "about": "“METHODS FOR DIAGNOSIS, PROGNOSIS AND METHODS OF TREATMENT” (Nodality, Inc., priority 2012, published 2014)", "key": {"CLL cells [1]": {"test_system": "CLL cells", "settings": "inhibition of AKT phosphorylation by the PI3K inhibitor; cited from earlier work"}, "healthy B cells": {"test_system": "healthy B cells", "method": "(§1) Cryopreserved PBMCs, 23 from CLL patients and 7 from healthy donors, were rapidly thawed in a 37° C. water bath. 1 mL of pre-warmed thawing media (PBS 1% FBS, 2 mM EDTA) was added dropwise to each of the cryovials. Thawed cells were transferred to a tube containing 8 mL thawing media. Tubes were inverted and centrifuged at 200×g for 8 minutes at room temperature. Supernatant was decanted, cell pellets were resuspended in 1 mL RPMI 1640 1% FCS and filtered over 70 um nylon mesh (BD Falcon) to remove cell clumps and debris. 11 mL of additional RPMI 1640 1% FCS was added to the samples to wash. A 20 uL aliquot was removed from each sample and placed into a solution of PBS 4% FCS CD45 Alexa Flour 700 and Propidium Iodide for viability and counting on a BDLSRII cytometer. The remaining volume of cell suspension was centrifuged at 200×g for 8 minutes at room temperature\nFor single agent modulators 150 μL of 10× solutions were arrayed into wells of a 96-well v-bottom plate (Nunc). Corresponding daughter plates were taken from the 37° C. incubator, and […] of RPMI1640 1% FCS was added to each well using the Liquidator 96-well pipettor. […] The daughter plates were pulse vortexed for 5 seconds and placed into a 37° C. water bath for 10 minutes.\nCorresponding daughter plates were taken from the 37° C. incubator. […]\nAntibody cocktails for signaling and apoptosis readouts were prepared in FACS Buffer. […]"}, "CLL B cells": {"test_system": "CLL B cells", "experiment": "SCNP phospho-flow: H2O2-modulated BCR signaling, CLL samples", "assay_type": "cell-based, human", "settings": "after exposure to H2O2", "method": "as §1, with “Thawed cells were transferred to a tube containing 8 mL thawing media. Tubes were inverted and centrifuged at 200×g for 8 minutes at room temperature.” left out, “cytometer.” for “cytometer. The remaining volume of cell suspension was centrifuged at 200×g for 8 minutes at room temperature”\nAt the end of the 10 minute incubation […] 5.6% PFA (final 1.6%) was added to each well to fix the cells.\nAt the end of the 10 minute incubation 200 uL 5.6% PFA (final 1.6%) was added to each well to fix the cells.\nCells were permeabilized by adding 600 µL of ice cold 100% methanol to each well using the Costar 96-channel pipettor (Costar). […]\nTo test whether phenotypic characterization of CLL physiology could be discerned based on responses of cells to extracellular stimuli, modulated BCR intracellular signaling was determined either in response to anti-μ (ligand-dependent) or post H2O2 treatment to evaluate the contribution of tonic signaling (ligand-independent) to BCR output. […]"}, "CLL cells [2]": {"test_system": "CLL cells", "settings": "in vitro treatment; Buchner 2009, Gobessi 2009; cited from earlier work"}, "CD19+CD5+ CLL cells [3]": {"test_system": "CD19+CD5+ CLL cells", "experiment": "SCNP drug-induced signaling, Example 2 (4 and 24 hours)", "assay_type": "cell-based, human", "quoted_text": "Peripheral blood mononuclear cells (PBMCs) were obtained from 29 patients with CLL treated on a clinical trial at “La Sapienza” University of Rome between November 2008 and January 2010 at the time of but prior to the initiation of first treatment. All patients provided informed consent for research purposes. SCNP assays were performed blinded to clinical outcomes. […] SCNP analysis was performed to quantitatively measure 18 intracellular signaling proteins within CD19+CD5+ CLL cells using a panel of 14 disease-relevant modulators (FIG. 27) as follows:\nSCNP analysis was performed to quantitatively measure intracellular signaling proteins within CD19+CD5+ CLL cells using a panel of disease-relevant modulators. First, the cryopreserved PBMC samples were thawed at 37° C., stained for viability with Amine Aqua (Invitrogen, Carlsbad, Calif.), resuspended in RPMI with 10% FBS and aliquoted at 100,000 cells per well 96-deepwell plates. Cells were rested for 2 hours at 37° C. followed by modulation. Short duration modulation was performed for 10 minutes at 37° C. with the following modulators: 20 μg/mL polyclonal goat F(ab′)2 anti-human IgM (Southern Biotech, Birmingham, Ala.), 5 μg/mL monoclonal anti-human IgD (BD Biosciences, San Jose, Calif.), 10 ng/mL of SDF1□ (R&D Systems, Minneapolis, Minn.), and the combination of 20 μg/mL polyclonal goat F(ab′)2 anti-human IgM and 10 ng/mL of SDF1□□□15 minute modulations were performed for the following: 0.5 μg/mL CD40L (R&D Systems, Minneapolis, Minn.), 50 ng/mL IL-2 (R&D Systems, Minneapolis, Minn.), 50 ng/mL IL-4 (BD Biosciences, San Jose, Calif.), 50 ng/mL IL-21 (Peprotech, Rocky Hill, N.J.), 1000 IU/mL of IFN□ (PBL InterferonSource, Piscataway, N.J.), 5 μg/mL R848 (Invivogen, San Diego, Calif.), and 1 μM thapsigargin (EMD Millipore, Billerica, Mass.). […]"}, "CD19+CD5+B-CLL cells": {"test_system": "CD19+CD5+B-CLL cells", "experiment": "SCNP modulated signaling, Example 3 (B-CLL vs healthy B cells)", "assay_type": "cell-based, human", "settings": "CLL samples compared to healthy controls", "method": "Peripheral blood mononuclear cells (PBMCs) were obtained from 39 B-CLL patients between 2006 and 2007, Rai stage 0-II, at different time points during their clinical course but prior to the initiation of treatment. PBMCs from four age-matched healthy donors were collected at the Stanford Blood Center. All donors provided informed consent for research purposes. SCNP assays were performed blinded to clinical data. Diagnosis and initiation of treatment for B-CLL were based on 1996 National Cancer Institute-Working Group (NCI-WG)/IWCLL 2008 Guidelines for Diagnosis and Treatment of CLL. The median age of CLL patients was slightly lower than the typical CLL population (58 years vs 65-70). Of the 39 samples evaluated, 15 expressed CD38 (≧30% of cells) and 20 expressed ZAP-70 (≧20% of cells); 19 were IGHV unmutated (98% cutoff); and the cytogenetic risk groups were evenly represented. IGHV mutational status and expression of CD38 and ZAP-70 were determined. […]\nSCNP analysis quantitatively measured intracellular signaling proteins within CD19+CD5+B-CLL cells using a panel of disease-relevant modulators (FIG. 27, FIG. 35A, B). […]\nFlow cytometry data were gated using WinList (Verity House Software, Topsham, Me.). […] The raw instrument fluorescence intensities were converted to calibrated intensity metrics (ERFs, Equivalent Number of Reference Fluorophores). […]"}, "CD19+CD5+ CLL cells [4]": {"test_system": "CD19+CD5+ CLL cells", "experiment": "SCNP modulated signaling, Example 2 (10-15 min modulation)", "assay_type": "cell-based, human", "settings": "SDF1α 10 ng/mL", "method": "Peripheral blood mononuclear cells (PBMCs) were obtained from 29 patients with CLL treated on a clinical trial at “La Sapienza” University of Rome between November 2008 and January 2010 at the time of but prior to the initiation of first treatment. All patients provided informed consent for research purposes. SCNP assays were performed blinded to clinical outcomes. Diagnosis and initiation of treatment for B-CLL were based on 1996 National Cancer Institute-Working Group ([…] 2008 Guidelines for Diagnosis and Treatment of CLL. Clinical and biological disease characteristics at diagnosis are summarized in FIG. 28 IGHV mutational status and expression of CD38 and ZAP-70 were determined. […] SCNP analysis was performed to quantitatively measure intracellular signaling proteins within CD19+CD5+ CLL cells using a panel of disease-relevant modulators. […] Cells were rested for 2 hours at 37° C. followed by modulation. Short duration modulation was performed for 10 minutes at 37° C. with the following modulators: 20 μg/mL polyclonal goat F(ab')2 anti-human IgM (Southern Biotech, Birmingham, Ala.), 5 μg/mL monoclonal anti-human IgD (BD Biosciences, San Jose, Calif.), 10 ng/mL of SDF1[…] (R&D Systems, Minneapolis, Minn.), and the combination of 20 μg/mL polyclonal goat F(ab')2 anti-human IgM and 10 ng/mL of SDF1[…]15 minute modulations were performed for the following: 0.5 μg/mL CD40L (R&D Systems, Minneapolis, Minn.), 50 ng/mL IL-[…] […] The raw instrument fluorescence intensities were converted to calibrated intensity metrics (ERFs, Equivalent Number of Reference Fluorophores). […] The term “signaling node” is used to refer to a proteomic readout in the presence or absence of a specific modulator. For example, the response to anti-IgM modulation can be measured using p-ERK as a readout. […] The term “metric” is used to refer to the quantification method used to evaluate the functional response of signaling proteins. […]"}, "[5]": {"settings": "24 hours, samples with low spontaneous apoptosis"}}}
{"compound": "CC[C@H](Nc1ncnc2[nH]cnc12)c1nc2cccc(F)c2c(=O)n1-c1ccccc1", "note": "[CAL-101/GS-1101]", "values": [{"measurement": "CD40L protection from spontaneous apoptosis", "setting": "CLL cells [1]", "value": "blocked"}]}
{"compound": "OO", "note": "[H2O2, hydrogen peroxide]", "values": [{"measurement": "anti-μ-mediated BCR signaling in presence of H2O2", "setting": "healthy B cells; B cells from healthy donors", "value": "further potentiated"}, {"measurement": "response of all signaling molecules except Akt to H2O2 treatment alone", "setting": "healthy B cells; healthy B cells", "value": "minimally responsive"}, {"measurement": "B cells with activated Syk and BLNK", "setting": "CLL B cells; sample CLL007 (Group II)", "value": "approximately 2%"}, {"measurement": "B cells with activated Syk and BLNK", "setting": "CLL B cells; sample CLL021 (Group II)", "value": "5-6%"}]}
{"compound": "COc1cc(Nc2ncc(F)c(Nc3ccc4c(n3)NC(=O)C(C)(C)O4)n2)cc(OC)c1OC", "note": "[R406]", "values": [{"measurement": "apoptotic response of CLL cells", "setting": "CLL cells [2]", "value": "mediated an apoptotic response"}]}
{"compound": "Cn1c(CCCC(=O)O)nc2cc(N(CCCl)CCCl)ccc21", "note": "[bendamustine]", "values": [{"measurement": "induced p-53BP1 signaling, bendamustine versus fludarabine", "setting": "CD19+CD5+ CLL cells [3]; [5]", "value": "greater"}, {"measurement": "induced p-H2AX signaling, bendamustine versus fludarabine", "setting": "CD19+CD5+ CLL cells [3]; [5]", "value": "equivalent"}, {"measurement": "p21 induction in response to bendamustine", "setting": "CD19+CD5+ CLL cells [3]; CLL samples with 17p deletion, 24 hour, additional cohort of 7 CLL samples", "value": "impaired p21 induction"}]}
{"compound": "SDF1α", "values": [{"measurement": "SDF1α→p-AKT modulation as a single stimulus", "setting": "CD19+CD5+B-CLL cells", "value": "weaker in nearly all CLL samples"}, {"measurement": "SDF1α→p-AKT signal", "setting": "CD19+CD5+ CLL cells [4]; 10 min, moderate signal", "value": "≥ 0.25", "unit": "log 2Fold"}, {"measurement": "SDF1α→p-ERK signal", "setting": "CD19+CD5+ CLL cells [4]; 10 min, moderate signal", "value": "≥ 0.25", "unit": "log 2Fold"}, {"measurement": "p-ERK signal, median log 2Fold", "setting": "CD19+CD5+ CLL cells [4]; 10 min modulation, αIgM 20 μg/mL", "value": 0.38, "unit": "log 2Fold"}]}
